# Results published in ChEMBL document CHEMBL5442379, “ASAP - SARS-CoV-2 nsp3 macrodomain single point” (2024).
# Biological target: Replicase polyprotein 1ab (Severe acute respiratory syndrome coronavirus 2) (UniProt P0DTD1)
# Description: Functional biochemical assay to identify treatments for viral infectious disease that targets SARS-COV-2 nsp3 macrodomain, whereby the mechanism of action displaces an ADP-Ribose modified peptide from the binding site. Utilizing a time-resolved fluorescence method to measure binding by reading the emitted fluorescence intensity in two wavelengths.
smiles,measurement,setting,value
O=S(=O)(NC[C@@H]1CCCCO1)c1cn2c(n1)CCCC2,inhibition,"Concentration 50.0 uM, Number of replicates 2.0, Standard deviation 0.892 %",-5.39%
Cc1nc2cnccn2c1NC(=O)c1cc(-c2ccco2)[nH]n1,inhibition,"Concentration 50.0 uM, Number of replicates 2.0, Standard deviation 2.08 %",-3.88%
O=C(C[C@@H](NC(=O)c1ncnc2[nH]ccc12)C1CC1)NCc1ccc(C(=O)O)cc1,inhibition,"Concentration 49.75 uM, Number of replicates 2.0, Standard deviation 1.213 %",-9.86%
same,inhibition,"Concentration 99.5 uM, Number of replicates 2.0, Standard deviation 0.076 %",0.768%
CC(C)(c1noc(-c2ncnc3[nH]ccc23)n1)S(C)(=O)=O,inhibition,"Concentration 50.0 uM, Number of replicates 2.0, Standard deviation 1.059 %",-0.756%
O=C1CCN(C(=O)c2cnn3ccc(C4CCN(C(=O)c5ccccc5)CC4)cc23)CCN1,inhibition,"Concentration 49.75 uM, Number of replicates 2.0, Standard deviation 0.064 %",-2.4%
same,inhibition,"Concentration 99.5 uM, Number of replicates 2.0, Standard deviation 5.989 %",-7.81%
CN(C(=O)c1cnn2ccc(C3CCN(C(=O)c4ccccc4)CC3)cc12)c1ccccc1O,inhibition,"Concentration 49.75 uM, Number of replicates 2.0, Standard deviation 2.649 %",10%
same,inhibition,"Concentration 99.5 uM, Number of replicates 2.0, Standard deviation 4.361 %",15.9%
CC(C)Cn1cc([C@H]2N(c3ncnc4[nH]ccc34)CC23CCOCC3)cn1,inhibition,"Concentration 49.75 uM, Number of replicates 2.0, Standard deviation 1.28 %",-0.591%
same,inhibition,"Concentration 99.5 uM, Number of replicates 2.0, Standard deviation 6.534 %",-4.66%
Cc1[nH]c2ncnc(NCc3ccco3)c2c1C,inhibition,"Concentration 50.0 uM, Number of replicates 2.0, Standard deviation 0.505 %",17%
same,inhibition,"Concentration 100.0 uM, Number of replicates 2.0, Standard deviation 0.323 %",37.5%
Cn1c(C(=O)N(CCC(=O)N2CCNCC2)Cc2cccc(Cl)c2)cnc1O,inhibition,"Concentration 49.75 uM, Number of replicates 2.0, Standard deviation 0.601 %",-4.76%
same,inhibition,"Concentration 99.5 uM, Number of replicates 2.0, Standard deviation 2.256 %",-2.76%
Cc1[nH]c2ncnc(NC(=O)c3ccncc3Cl)c2c1C,inhibition,"Concentration 50.0 uM, Number of replicates 2.0, Standard deviation 1.372 %",69.6%
same,inhibition,"Concentration 100.0 uM, Number of replicates 2.0, Standard deviation 0.621 %",85.6%
O=C(N[C@H]1CCC[C@H]1C(=O)O)c1cnn2ccc(C3CCN(C(=O)c4ccccc4)CC3)cc12,inhibition,"Concentration 49.75 uM, Number of replicates 2.0, Standard deviation 2.492 %",59.6%
same,inhibition,"Concentration 99.5 uM, Number of replicates 2.0, Standard deviation 0.074 %",73.5%
NS(=O)(=O)N1CCCN(c2ncnc3[nH]c(I)cc23)CC1,inhibition,"Concentration 50.0 uM, Number of replicates 2.0, Standard deviation 1.583 %",2.29%
CCn1cc(CNc2cc3c(O)ncnc3cn2)nn1,inhibition,"Concentration 50.0 uM, Number of replicates 2.0, Standard deviation 1.563 %",1.67%
Cc1[nH]c2ncnc(NC(=O)C3CCC(F)(F)CC3)c2c1C,inhibition,"Concentration 50.0 uM, Number of replicates 2.0, Standard deviation 0.519 %",2.15%
COc1cc(Nc2ncnc3[nH]ccc23)ccc1NC(C)=O,inhibition,"Concentration 50.0 uM, Number of replicates 2.0, Standard deviation 12.002 %",-7.76%
Cc1[nH]c2ncnc(NC(=O)c3ncn(-c4ccccc4)n3)c2c1C,inhibition,"Concentration 50.0 uM, Number of replicates 2.0, Standard deviation 1.407 %",7.1%
Clc1cnc(N2CCN(c3ncnc4[nH]ccc34)CC2)c(Cl)c1,inhibition,"Concentration 50.0 uM, Number of replicates 2.0, Standard deviation 0.674 %",-2%
same,inhibition,"Concentration 100.0 uM, Number of replicates 2.0, Standard deviation 2.989 %",-6.57%
Cc1cccc(Cl)c1S(=O)(=O)Nc1cnc2[nH]ncc2c1,inhibition,"Concentration 50.0 uM, Number of replicates 2.0, Standard deviation 1.912 %",-0.254%
C[C@H](NC(=O)c1cnn2ccc(C3CCN(C(=O)c4ccccc4)CC3)cc12)c1cccnc1,inhibition,"Concentration 49.75 uM, Number of replicates 2.0, Standard deviation 2.207 %",-1.84%
same,inhibition,"Concentration 99.5 uM, Number of replicates 2.0, Standard deviation 1.542 %",-6.21%
CC(C)[C@@H](Nc1ncnc2[nH]ccc12)c1nncn1C,inhibition,"Concentration 49.75 uM, Number of replicates 2.0, Standard deviation 0.565 %",4.59%
same,inhibition,"Concentration 99.5 uM, Number of replicates 2.0, Standard deviation 7.858 %",10.8%
O=C(Nc1ccccc1)Nc1ccc(C(=O)NCCc2cccnc2)cc1,inhibition,"Concentration 49.75 uM, Number of replicates 2.0, Standard deviation 2.77 %",1.27%
same,inhibition,"Concentration 99.5 uM, Number of replicates 2.0, Standard deviation 0.373 %",10.4%
Cc1ccc(C(=O)N(CCC(=O)N2CCNCC2)Cc2cccc(Cl)c2)[nH]1,inhibition,"Concentration 49.75 uM, Number of replicates 2.0, Standard deviation 5.038 %",-5.9%
same,inhibition,"Concentration 99.5 uM, Number of replicates 2.0, Standard deviation 2.609 %",-3.94%
c1ccc(CN2CCO[C@@H](CNc3ncnc4nc[nH]c34)C2)cc1,inhibition,"Concentration 50.0 uM, Number of replicates 2.0, Standard deviation 1.424 %",-2.44%
N[C@@H]1CCC[C@@H](C(=O)N(CCC(=O)N2CCNCC2)Cc2cccc(Cl)c2)C1,inhibition,"Concentration 49.75 uM, Number of replicates 2.0, Standard deviation 0.617 %",-0.755%
same,inhibition,"Concentration 99.5 uM, Number of replicates 2.0, Standard deviation 0.793 %",-1.47%
Cn1cc(NC(=O)c2ccc(NC(=O)Nc3ccccc3)cc2)c(C#N)n1,inhibition,"Concentration 49.75 uM, Number of replicates 2.0, Standard deviation 0.991 %",2.49%
same,inhibition,"Concentration 99.5 uM, Number of replicates 2.0, Standard deviation 1.521 %",-0.539%
c1ccc(OC[C@@H]2CCCN2c2ncnc3[nH]ccc23)cc1,inhibition,"Concentration 50.0 uM, Number of replicates 2.0, Standard deviation 1.709 %",-0.466%
COCc1nc(CNc2ncc3c(n2)COC3)cs1,inhibition,"Concentration 50.0 uM, Number of replicates 2.0, Standard deviation 8.324 %",-7.14%
O=C(c1cnc2[nH]ncc2c1)N1CCC(c2ccn3ncc(C(=O)N4CCCCC4)c3c2)CC1,inhibition,"Concentration 49.75 uM, Number of replicates 2.0, Standard deviation 0.466 %",15.8%
same,inhibition,"Concentration 99.5 uM, Number of replicates 2.0, Standard deviation 6.369 %",34.4%
CN(c1ncnc2[nH]ncc12)[C@@H](CCO)c1ccccc1,inhibition,"Concentration 49.75 uM, Number of replicates 2.0, Standard deviation 10.225 %",8.86%
same,inhibition,"Concentration 99.5 uM, Number of replicates 2.0, Standard deviation 3.705 %",5.14%
CCn1cc(CNc2nc3[nH]cnc3c(=O)[nH]2)nn1,inhibition,"Concentration 50.0 uM, Number of replicates 2.0, Standard deviation 3.758 %",-0.991%
Fc1ccc(Oc2cc(CNc3ncnc4nc[nH]c34)ccn2)cc1,inhibition,"Concentration 50.0 uM, Number of replicates 2.0, Standard deviation 7.991 %",2.01%
Cc1[nH]nc(C(=O)N2CCC(c3ccn4ncc(C(=O)N5CCCCC5)c4c3)CC2)c1C,inhibition,"Concentration 49.75 uM, Number of replicates 2.0, Standard deviation 4.553 %",18%
same,inhibition,"Concentration 99.5 uM, Number of replicates 2.0, Standard deviation 2.151 %",33.8%
CC1OCCC1(O)CNC(=O)c1ncnc2[nH]ccc12 (stereo not given),inhibition,"Concentration 50.0 uM, Number of replicates 2.0, Standard deviation 4.016 %",1.86%
NC(=O)c1ncccc1C(=O)N1CCC(c2ccn3ncc(C(=O)N4CCCCC4)c3c2)CC1,inhibition,"Concentration 49.75 uM, Number of replicates 2.0, Standard deviation 4.804 %",20%
same,inhibition,"Concentration 99.5 uM, Number of replicates 2.0, Standard deviation 1.17 %",36%
Nc1ncnc2c1ncn2Cc1cccc2ncnn12,inhibition,"Concentration 49.75 uM, Number of replicates 2.0, Standard deviation 0.496 %",-0.553%
same,inhibition,"Concentration 99.5 uM, Number of replicates 2.0, Standard deviation 1.809 %",-3.16%
Cc1nc(C(=O)N2CCC(c3ccn4ncc(C(=O)N5CCCCC5)c4c3)CC2)c(=O)[nH]c1C,inhibition,"Concentration 49.75 uM, Number of replicates 2.0, Standard deviation 2.437 %",26.4%
same,inhibition,"Concentration 99.5 uM, Number of replicates 2.0, Standard deviation 0.005 %",44.2%
O=C(CCN(Cc1cccc(Cl)c1)C(=O)C1(F)CCCCC1)N1CCNCC1,inhibition,"Concentration 49.75 uM, Number of replicates 2.0, Standard deviation 2.579 %",-3.58%
same,inhibition,"Concentration 99.5 uM, Number of replicates 2.0, Standard deviation 1.426 %",0.185%
O=C(c1ccncc1)N1CCC(c2ccn3ncc(C(=O)N4CCCCC4)c3c2)CC1,inhibition,"Concentration 49.75 uM, Number of replicates 2.0, Standard deviation 1.966 %",10.8%
same,inhibition,"Concentration 99.5 uM, Number of replicates 2.0, Standard deviation 0.415 %",26.5%
Cn1cc([C@H]2CSCCN2c2ncnc3[nH]ccc23)cn1,inhibition,"Concentration 49.75 uM, Number of replicates 2.0, Standard deviation 2.461 %",-6.49%
same,inhibition,"Concentration 99.5 uM, Number of replicates 2.0, Standard deviation 0.732 %",-3.46%
O=C(Nc1cnc2[nH]ncc2c1)c1noc2c1CCCC2,inhibition,"Concentration 50.0 uM, Number of replicates 2.0, Standard deviation 0.458 %",-1.4%
Oc1ccccc1CNc1ncnc2cccnc12,inhibition,"Concentration 49.75 uM, Number of replicates 2.0, Standard deviation 0.51 %",-1.84%
same,inhibition,"Concentration 99.5 uM, Number of replicates 2.0, Standard deviation 1.128 %",-0.535%
COCc1cc(CNc2cc3c(O)ncnc3cn2)no1,inhibition,"Concentration 50.0 uM, Number of replicates 2.0, Standard deviation 0.223 %",3.31%
CC(C)[C@@H](Nc1ncnc2n[nH]cc12)c1cnn(C)c1,inhibition,"Concentration 50.0 uM, Number of replicates 2.0, Standard deviation 1.634 %",63.5%
CN1CCC[C@H](NC(=O)c2cnn3ccc(C4CCN(C(=O)c5ccccc5)CC4)cc23)C1,inhibition,"Concentration 49.75 uM, Number of replicates 2.0, Standard deviation 0.821 %",-6.99%
same,inhibition,"Concentration 99.5 uM, Number of replicates 2.0, Standard deviation 3.447 %",-5.44%
c1nc(-c2nc(-c3cc(C4CC4)[nH]n3)no2)c2cc[nH]c2n1,inhibition,"Concentration 50.0 uM, Number of replicates 2.0, Standard deviation 1.585 %",-4.8%
same,inhibition,"Concentration 50.0 uM, Number of replicates 2.0, Standard deviation 2.643 %",-2.81%
same,inhibition,"Concentration 100.0 uM, Number of replicates 2.0, Standard deviation […]",-2.45%
O=C(c1ccccc1)N1CCC(c2ccn3ncc(C(=O)N4CCc5nc[nH]c5C4)c3c2)CC1,inhibition,"Concentration 49.75 uM, Number of replicates 2.0, Standard deviation 2.532 %",11.2%
same,inhibition,"Concentration 99.5 uM, Number of replicates 2.0, Standard deviation 2.098 %",20.3%
O=C(Cc1ccc(F)cc1)Nc1ccc2[nH]ncc2c1,inhibition,"Concentration 50.0 uM, Number of replicates 2.0, Standard deviation 1.625 %",1.14%
O=C(O)c1ccc2c(c1)ncn2-c1ccc(CNC(=O)c2ncnc3[nH]ccc23)cc1,inhibition,"Concentration 99.5 uM, Number of replicates 2.0, Standard deviation 0.835 %",-4.65%
O=C(CCN(Cc1cccc(Cl)c1)C(=O)c1ccccc1F)N1CCNCC1,inhibition,"Concentration 49.75 uM, Number of replicates 2.0, Standard deviation 0.399 %",-0.625%
same,inhibition,"Concentration 99.5 uM, Number of replicates 2.0, Standard deviation 0.282 %",0.395%
O=S1(=O)CCC[C@@H](CNc2ncnc3n[nH]cc23)C1,inhibition,"Concentration 50.0 uM, Number of replicates 2.0, Standard deviation 5.989 %",4.59%
